Laboratory results from PMC4669708 (Cell Death & Disease, 2015).

Columns and labels:
Assay in all cases: c-ponatinib pulldown LC-MS/MS
Type in all cases: binding
IRAK4 = target: T1, IRAK4 (Homo sapiens, UniProt Q9NWZ3)
T1 sequence (Q9NWZ3 1-460): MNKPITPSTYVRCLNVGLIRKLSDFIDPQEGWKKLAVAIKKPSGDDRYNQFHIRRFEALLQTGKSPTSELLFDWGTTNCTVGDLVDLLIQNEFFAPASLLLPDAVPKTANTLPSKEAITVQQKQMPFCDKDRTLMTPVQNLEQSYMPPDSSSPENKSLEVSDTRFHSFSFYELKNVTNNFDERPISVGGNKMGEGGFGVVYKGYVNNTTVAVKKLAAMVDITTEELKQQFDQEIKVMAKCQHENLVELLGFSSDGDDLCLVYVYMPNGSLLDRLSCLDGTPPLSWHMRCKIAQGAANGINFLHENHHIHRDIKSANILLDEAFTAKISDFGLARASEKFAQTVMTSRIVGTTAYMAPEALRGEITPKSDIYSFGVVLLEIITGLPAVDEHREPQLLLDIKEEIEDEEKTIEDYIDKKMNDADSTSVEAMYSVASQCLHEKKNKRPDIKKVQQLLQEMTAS
Procedure, shortened: (§1)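 Affinity matrix: 25 nmol c-ponatinib/50 μl NHS-Sepharose; 10 mg whole cell lysate input; duplicate pulldowns, each run twice by LC-MS/MS. DTT/iodoacetamide, trypsin. Human SwissProt search, protein FDR <1%. Competition with free compound; fold reduction = median spectral count ratio.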

JAK1 = JAK1 (Homo sapiens, UniProt P23458)
Chain of JAK1 (P23458 whole entry): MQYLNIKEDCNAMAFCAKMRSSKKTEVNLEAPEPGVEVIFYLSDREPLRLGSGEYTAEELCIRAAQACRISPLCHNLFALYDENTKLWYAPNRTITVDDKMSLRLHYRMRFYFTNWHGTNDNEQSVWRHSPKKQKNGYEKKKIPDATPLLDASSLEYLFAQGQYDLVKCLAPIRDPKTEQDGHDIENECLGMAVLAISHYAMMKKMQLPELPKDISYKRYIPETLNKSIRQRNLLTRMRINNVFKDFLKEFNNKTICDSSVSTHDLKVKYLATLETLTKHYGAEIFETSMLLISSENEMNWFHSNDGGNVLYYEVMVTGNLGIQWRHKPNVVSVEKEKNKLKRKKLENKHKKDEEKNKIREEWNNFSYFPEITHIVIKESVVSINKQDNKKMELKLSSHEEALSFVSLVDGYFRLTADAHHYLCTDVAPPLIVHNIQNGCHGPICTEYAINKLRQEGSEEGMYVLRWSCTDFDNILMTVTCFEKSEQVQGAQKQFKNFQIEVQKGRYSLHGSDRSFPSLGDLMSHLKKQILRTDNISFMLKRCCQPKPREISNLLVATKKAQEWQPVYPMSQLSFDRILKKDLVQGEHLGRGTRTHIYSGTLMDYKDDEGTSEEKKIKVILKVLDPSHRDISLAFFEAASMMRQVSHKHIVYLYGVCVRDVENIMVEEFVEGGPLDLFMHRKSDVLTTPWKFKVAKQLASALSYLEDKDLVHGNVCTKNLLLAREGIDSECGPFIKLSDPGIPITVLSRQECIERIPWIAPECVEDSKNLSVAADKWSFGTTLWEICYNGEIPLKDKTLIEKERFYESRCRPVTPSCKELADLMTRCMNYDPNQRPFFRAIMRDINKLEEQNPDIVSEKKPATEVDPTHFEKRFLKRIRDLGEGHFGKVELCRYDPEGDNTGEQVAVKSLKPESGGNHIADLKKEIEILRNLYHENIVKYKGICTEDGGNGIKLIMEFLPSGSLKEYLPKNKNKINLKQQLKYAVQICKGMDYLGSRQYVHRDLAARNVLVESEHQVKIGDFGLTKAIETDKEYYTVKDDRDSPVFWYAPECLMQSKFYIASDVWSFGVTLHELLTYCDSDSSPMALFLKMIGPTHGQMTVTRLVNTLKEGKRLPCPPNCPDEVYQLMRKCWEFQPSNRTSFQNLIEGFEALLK
Procedure, shortened: as §1

PTK2B = PTK2B (Homo sapiens, UniProt Q14289)
Chain of PTK2B (Q14289 whole entry): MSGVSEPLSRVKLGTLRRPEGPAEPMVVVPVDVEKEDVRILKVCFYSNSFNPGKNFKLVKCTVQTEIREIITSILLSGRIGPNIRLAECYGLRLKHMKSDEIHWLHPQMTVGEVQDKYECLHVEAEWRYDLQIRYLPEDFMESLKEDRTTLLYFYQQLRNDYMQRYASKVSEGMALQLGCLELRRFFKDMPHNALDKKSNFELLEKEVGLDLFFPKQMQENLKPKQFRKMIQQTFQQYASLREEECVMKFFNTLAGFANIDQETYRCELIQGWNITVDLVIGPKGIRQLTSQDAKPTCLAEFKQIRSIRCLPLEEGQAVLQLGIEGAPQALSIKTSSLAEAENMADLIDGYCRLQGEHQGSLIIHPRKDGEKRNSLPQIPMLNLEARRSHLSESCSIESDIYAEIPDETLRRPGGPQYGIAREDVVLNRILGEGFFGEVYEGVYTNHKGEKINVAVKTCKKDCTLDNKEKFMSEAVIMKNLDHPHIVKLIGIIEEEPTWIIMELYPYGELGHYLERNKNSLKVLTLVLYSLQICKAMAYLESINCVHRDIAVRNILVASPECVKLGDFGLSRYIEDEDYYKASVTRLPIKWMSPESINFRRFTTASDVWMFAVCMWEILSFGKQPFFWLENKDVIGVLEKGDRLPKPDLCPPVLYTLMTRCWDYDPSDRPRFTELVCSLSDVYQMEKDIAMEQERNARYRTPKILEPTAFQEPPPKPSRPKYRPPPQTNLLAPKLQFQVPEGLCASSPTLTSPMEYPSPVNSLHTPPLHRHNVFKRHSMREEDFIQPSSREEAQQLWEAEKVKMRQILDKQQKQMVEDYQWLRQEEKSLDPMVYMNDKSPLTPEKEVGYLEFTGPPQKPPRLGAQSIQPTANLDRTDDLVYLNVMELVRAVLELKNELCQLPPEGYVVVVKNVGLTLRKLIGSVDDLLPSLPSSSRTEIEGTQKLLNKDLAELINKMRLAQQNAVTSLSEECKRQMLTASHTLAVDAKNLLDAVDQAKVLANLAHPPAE
Procedure, shortened: as §1

Question: `Cc1ccc(C(=O)Nc2ccc(CN3CCN(CCCN)CC3)c(C(F)(F)F)c2)cc1C#Cc1cnc2cccnn12` [c-ponatinib] was tested. Which “Av. SC comp.” value (IRAK4; + free ponatinib) did it give?
Answer: 2.5

Question: What about the “Total SC comp.” value (IRAK4; + free ponatinib) of the same molecule?
Answer: 10

Question: And the “Av. SC” value (IRAK4; no competitor)?
Answer: 8.5

Question: What about the “Total SC” value (IRAK4; no competitor) of the same molecule?
Answer: 34

Question: What about the “Av. SC comp.” value (JAK1; + free ponatinib) of the same molecule?
Answer: 0

Question: And the “Total SC comp.” value (JAK1; + free ponatinib)?
Answer: 0

Question: And the “Av. SC” value (JAK1; no competitor)?
Answer: 21.5

Question: And the “Total SC” value (JAK1; no competitor)?
Answer: 86

Question: And the “Av. SC comp.” value (PTK2B; + free ponatinib)?
Answer: 0

Question: And the “Total SC comp.” value (PTK2B; + free ponatinib)?
Answer: 0

Question: What about the “Av. SC” value (PTK2B; no competitor) of the same molecule?
Answer: 32.5

Question: What about the “Total SC” value (PTK2B; no competitor) of the same molecule?
Answer: 130
